From patent publication US11370770B2, “3-arylindazoles as selective MEK4 inhibitors” (priority 2019, dated 2022)

How the values were obtained:
MEK1 = MEK1 (Homo sapiens (Human), UniProt Q02750); experiment: MEK family profiling ADP-Glo, MEK1; format: biochemical; settings: Erk2 substrate; 0.6 μM ATP; read-out: IC50 MEK isoform 1
MEK5 = MEK5 (Homo sapiens (Human), UniProt Q13163); experiment: MEK family profiling ADP-Glo, MEK5; format: biochemical; settings: Erk5 substrate; 0.6 μM ATP; read-out: IC50 MEK isoform 5
Sequence of MEK5 (Q13163 whole entry, canonical isoform): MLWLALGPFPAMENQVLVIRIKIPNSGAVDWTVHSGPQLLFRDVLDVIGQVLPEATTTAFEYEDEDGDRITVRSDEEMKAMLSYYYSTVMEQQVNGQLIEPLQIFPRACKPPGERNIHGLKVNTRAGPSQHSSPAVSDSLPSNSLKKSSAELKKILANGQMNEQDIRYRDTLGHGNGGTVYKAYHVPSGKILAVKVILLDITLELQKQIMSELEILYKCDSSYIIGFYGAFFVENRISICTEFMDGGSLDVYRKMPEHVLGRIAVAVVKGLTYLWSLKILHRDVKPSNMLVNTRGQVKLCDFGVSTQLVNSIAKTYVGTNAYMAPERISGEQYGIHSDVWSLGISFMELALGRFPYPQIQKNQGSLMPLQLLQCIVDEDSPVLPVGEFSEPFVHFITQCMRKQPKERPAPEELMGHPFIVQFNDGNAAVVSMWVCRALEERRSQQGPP

MEK3 = MEK3 (Homo sapiens (Human), UniProt P46734); experiment: MEK family profiling ADP-Glo, MEK3; format: biochemical; settings: p38α substrate; 0.6 μM ATP; read-out: IC50 MEK isoform 3
Sequence of MEK3 (P46734 whole entry, canonical isoform): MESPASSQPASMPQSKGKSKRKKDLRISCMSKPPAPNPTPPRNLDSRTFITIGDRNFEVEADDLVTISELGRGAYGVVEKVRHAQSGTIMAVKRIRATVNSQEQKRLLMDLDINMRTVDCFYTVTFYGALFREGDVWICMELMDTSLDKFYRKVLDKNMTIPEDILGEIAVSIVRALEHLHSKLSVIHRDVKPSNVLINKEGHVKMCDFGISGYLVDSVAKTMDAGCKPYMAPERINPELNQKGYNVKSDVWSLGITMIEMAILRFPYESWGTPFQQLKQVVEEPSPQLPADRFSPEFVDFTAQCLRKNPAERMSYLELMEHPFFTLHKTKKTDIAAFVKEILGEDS

MEK2 = MEK2 (Homo sapiens (Human), UniProt P36507); experiment: MEK family profiling ADP-Glo, MEK2; format: biochemical; settings: Erk2 substrate; 0.6 μM ATP; read-out: IC50 MEK isoform 2
Sequence of MEK2 (P36507 whole entry, canonical isoform): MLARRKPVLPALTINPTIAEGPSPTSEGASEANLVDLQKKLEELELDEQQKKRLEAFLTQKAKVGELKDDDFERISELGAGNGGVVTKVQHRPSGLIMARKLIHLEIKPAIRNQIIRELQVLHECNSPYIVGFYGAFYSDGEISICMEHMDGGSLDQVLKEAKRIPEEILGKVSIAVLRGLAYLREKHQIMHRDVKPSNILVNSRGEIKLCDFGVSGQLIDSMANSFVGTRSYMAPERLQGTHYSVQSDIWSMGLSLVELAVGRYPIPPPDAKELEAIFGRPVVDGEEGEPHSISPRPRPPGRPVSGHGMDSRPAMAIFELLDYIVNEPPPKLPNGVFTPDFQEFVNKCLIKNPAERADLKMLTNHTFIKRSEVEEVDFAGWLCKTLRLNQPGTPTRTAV

MEK6 = MEK6 (Homo sapiens (Human), UniProt P52564); experiment: MEK family profiling ADP-Glo, MEK6; format: biochemical; settings: p38α substrate; 0.6 μM ATP; read-out: IC50 MEK isoform 6
Sequence of MEK6 (P52564 whole entry, canonical isoform): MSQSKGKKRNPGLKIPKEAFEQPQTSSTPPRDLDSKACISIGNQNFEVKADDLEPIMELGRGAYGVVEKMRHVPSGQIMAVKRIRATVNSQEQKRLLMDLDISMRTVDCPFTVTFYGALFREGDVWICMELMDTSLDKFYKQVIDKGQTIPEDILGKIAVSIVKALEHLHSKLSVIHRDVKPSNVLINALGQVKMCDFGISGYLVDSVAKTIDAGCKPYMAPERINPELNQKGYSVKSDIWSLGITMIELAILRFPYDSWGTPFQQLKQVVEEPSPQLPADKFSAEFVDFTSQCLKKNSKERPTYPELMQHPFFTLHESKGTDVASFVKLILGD

human MEK4 = human MEK4 (Homo sapiens (Human), UniProt P45985); experiment: MEK4 ADP-Glo kinase activity assay (p38α substrate); format: biochemical; settings: for IC50: p38α substrate, value with 95% confidence interval in brackets, read-out: MEK4-p38, IC50, μM [95% Cl]
Sequence of human MEK4 (P45985 whole entry): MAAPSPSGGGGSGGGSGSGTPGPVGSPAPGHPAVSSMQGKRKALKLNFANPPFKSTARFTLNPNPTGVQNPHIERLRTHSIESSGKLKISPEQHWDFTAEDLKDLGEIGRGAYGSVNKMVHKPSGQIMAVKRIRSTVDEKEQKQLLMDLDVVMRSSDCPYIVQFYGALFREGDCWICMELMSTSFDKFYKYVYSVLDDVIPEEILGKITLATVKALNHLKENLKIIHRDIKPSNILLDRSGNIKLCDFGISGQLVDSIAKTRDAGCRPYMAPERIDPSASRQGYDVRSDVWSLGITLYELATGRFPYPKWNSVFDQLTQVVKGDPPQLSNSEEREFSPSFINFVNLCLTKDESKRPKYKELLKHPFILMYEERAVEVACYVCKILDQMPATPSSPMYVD

PC3M cells = experiment: Scratch wound assay; format: cell-based

Sequence of MEK1 (Q02750 whole entry, canonical isoform): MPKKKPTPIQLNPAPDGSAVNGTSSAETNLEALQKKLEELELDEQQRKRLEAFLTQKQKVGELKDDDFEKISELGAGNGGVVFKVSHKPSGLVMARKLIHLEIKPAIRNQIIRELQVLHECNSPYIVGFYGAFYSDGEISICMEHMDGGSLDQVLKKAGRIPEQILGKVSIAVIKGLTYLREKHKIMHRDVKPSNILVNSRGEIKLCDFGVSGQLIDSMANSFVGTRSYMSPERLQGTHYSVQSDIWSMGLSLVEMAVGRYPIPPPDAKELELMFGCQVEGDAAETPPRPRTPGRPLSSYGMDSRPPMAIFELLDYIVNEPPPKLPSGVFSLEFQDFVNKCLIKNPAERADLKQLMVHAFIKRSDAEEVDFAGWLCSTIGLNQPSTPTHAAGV

Row | SMILES | IC50 (MEK1) | IC50 (MEK5) | IC50 (MEK3) | IC50 (MEK2) | IC50 (MEK6) | further results
1 | Cc1cccc2[nH]nc(-c3ccc(O)cc3)c12 [Compound 6b] | 11 µM | > 27 µM | > 27 µM | 15 µM | 21 µM | –
2 | Clc1cccc2[nH]nc(-c3cccnc3)c12 [Compound 6e, 4-chloro-3-(pyridin-3-yl)-2H-indazole] | – | – | – | – | – | IC50 (human MEK4): > 22 µM
3 | Fc1ccc2c(-c3ccc4c(c3)OCO4)n[nH]c2c1 [Compound 6ee, 3-(2H-1,3-benzodioxol-5-yl)-6-fluoro-2H-indazole] | 6.6 µM | > 27 µM | 21 µM | 9.3 µM | 5.8 µM | efficacy in wound scratch assay (PC3M cells; 10 μM): modest efficacy; efficacy in wound scratch assay (PC3M cells; 25 μM): performs better; Percent Difference, DMSO vs. 10 uM inhibitor (PC3M cells; PC3M cells, 10 μM, wound gap 0 vs 20 hrs): 14.93%; Percent Difference, DMSO vs. 25 uM inhibitor (PC3M cells; PC3M cells, 25 μM, wound gap 0 vs 20 hrs): 32.15%
4 | CC(C)(O)c1cccc(-c2n[nH]c3cccc(Cl)c23)c1 [Compound 6g, 2-[3-(4-chloro-2H-indazol-3-yl)phenyl]propan-2-ol] | – | – | – | – | – | IC50 (human MEK4): > 22 µM
5 | Oc1ccc(-c2n[nH]c3ccc(C(F)(F)F)cc23)cc1 [Compound 6j, 4-[5-(trifluoromethyl)-2H-indazol-3-yl]phenol] | 4.6 µM | > 27 µM | – | 5.3 µM | 1.6 µM | –
6 | CC(C)(C)OC(=O)n1nc(-c2ccc(O)cc2)c2cc(C(F)(F)F)ccc21 [Compound 6k, tert-butyl 3-(4-hydroxyphenyl)-5-(trifluoromethyl)-1H-indazole-1-carboxylate] | – | – | – | – | – | IC50 (human MEK4): > 20 µM
7 | O=C(O)c1ccc(-c2n[nH]c3ccc(C(F)(F)F)cc23)cc1 [Compound 6n, 4-[5-(trifluoromethyl)-2H-indazol-3-yl]benzoic Acid] | 10 µM | > 27 µM | 2.9 µM | > 27 µM | 6 µM | –
8 | Cc1ccc2[nH]nc(-c3ccc(F)c(CO)c3)c2c1 [Compound 6o] | 4 µM | > 27 µM | 6 µM | 5.4 µM | 3.4 µM | –
9 | Cc1ccc2[nH]nc(-c3ccc4c(c3)OCO4)c2c1 [Compound 6p, 3-(2H-1,3-benzodioxol-5-yl)-5-methyl-2H-indazole] | 6.6 µM | 16 µM | 8.5 µM | 9.1 µM | 3.2 µM | –
10 | Cc1ccc2[nH]nc(-c3ccc(O)cc3)c2c1 [Compound 6q, 4-(5-methyl-2H-indazol-3-yl)phenol] | 7.7 µM | 25 µM | – | 7.2 µM | 2.2 µM | –
11 | Cc1ccc2[nH]nc(-c3ccc(C(N)=O)cc3)c2c1 [Compound 6r, 4-(5-methyl-2H-indazol-3-yl)benzamide] | 3.9 µM | 19 µM | 4.1 µM | 6.1 µM | 2.1 µM | –
12 | Cc1ccc2[nH]nc(-c3ccc(C(=O)O)cc3)c2c1 [Compound 6s, 4-(5-methyl-2H-indazol-3-yl)benzoic Acid] | 17 µM | > 27 µM | 12 µM | > 27 µM | 8.7 µM | –
13 | COC(=O)c1ccc(-c2n[nH]c3cc(C(F)(F)F)ccc23)cc1 [Compound 6y, methyl 4-[6-(trifluoromethyl)-2H-indazol-3-yl]benzoate] | – | – | – | – | – | MEK4 inhibition (human MEK4; SAR discussion of Table 1): completely inactive; IC50 (human MEK4): > 20 µM
14 | O=C(O)c1ccc(-c2n[nH]c3cc(C(F)(F)F)ccc23)cc1 [Compound 6z, 4-[6-(trifluoromethyl)-2H-indazol-3-yl]benzoic Acid] | 17 µM | 0.35 µM | > 27 µM | > 27 µM | 8.8 µM | –
15 | O=c1c(-c2ccc(O)cc2)coc2cc(O)cc(O)c12 [Geni, genistein, reference compound] | – | – | – | – | – | Percent Difference, DMSO vs. Geni (PC3M cells; PC3M cells, genistein 10 μM, wound gap 0 vs 20 hrs): 33.45%
